By melting point is commonly meant the temperature, or range, at which the solid turns liquid. As usually defined, the pIC50 is the negative decadic logarithm of the IC50, by convention in mol/L. A lower pIC50 goes with a high IC50.

pIC50: −log10 of the molar value. Counter-ions that a name gives are not always drawn.

We go through 17 compounds from patent US8158792B2, “Spiropiperidines for use as tryptase inhibitors” (Janssen Pharmaceutica N.V., priority 2007, dated 2012).

The target in one data set is human lung tryptase. Description: β-Tryptase In-Vitro Enzyme Assay. It is filed as biochemical. Conditions: human lung tryptase 1 nM, substrate H-D-HHT-Ala-Arg-pNa 500 μM, pH 7.4, room temperature. Here is the method: The β-tryptase assay was conducted with human lung tryptase (Cortex Biochem #CP3033) in an aqueous buffer (10 mM Tris, 10 mM Hepes, 150 mM NaCl, 0.1% PEG 8000, pH 7.4) using the chromogenic substrate H-D-HHT-Ala-Arg-pNa. […] Percent inhibition was calculated by comparing the initial reaction velocity of samples without inhibitor to those with inhibitor. The initial reaction velocities were analyzed using Microsoft Excel.

The subject of data set [1] is antigen-induced allergic sheep. Description: Sheep Efficacy Model (antigen-induced allergic sheep asthma model). It is filed as in vivo. The note with it: 30 mg/kg BID oral gavage, two sheep. Here is the method: The in vivo efficacy of Compound 3 was evaluated in antigen-induced allergic sheep, which is a well-characterized asthma model (Abraham, W. M. Pulmonary Pharmacol. 1989, 2, 33-40). Compound 3 was administered via oral gavage to two sheep previously shown to be allergic responders to inhaled Ascaris suum antigen (FIG. 1). The compound was given at a dose of 30 mg/kg, BID, on day 1, and again on day 2 at 2 h prior to antigen challenge and then 4 h after antigen challenge. Airway resistance (SRL) was monitored for 8 h post antigen challenge and airway hyper-reactivity to carbachol (PC400) was measured 24 h post antigen challenge.

The test system of data set [2] is guinea pig model of allergic asthma. Description: Guinea Pig Efficacy Model (OVA allergic asthma). It is filed as in vivo. Here is the method:
The in vivo efficacy of Compound 3 was evaluated in a guinea pig model of allergic asthma. In this model, guinea pigs were sensitized and challenged with chicken egg ovalbumin (OVA) according to the protocol of N. Smith and F. J. Johnson (Clin. Exp. Allergy 2005, 35, 522-530), with some slight modifications. Guinea pigs were sensitized with 80 mg of OVA and 80 mg of aluminum hydroxide administered intraperitoneally on day 0, then challenged with 0.03% OVA aerosol for 10 minutes on day 14. In the experiment measuring early phase pulmonary response (EAR), guinea pigs were challenged for an additional three minutes with 0.06% OVA aerosol. EAR was measured as enhanced pause (PenH) using BUXCO whole body plethysmography for 10 minutes immediately following the OVA aerosol challenge. The animals were then euthanized and assessed for bronchoalveolar lavage (BAL) immune cell counts 24 hours after aerosol challenge on day 15. Either Compound 3 in doses of 3, 10, and/or 30 mg/kg or vehicle were administered subcutaneously, 1-2 hours before and 4-6 hours after OVA aerosol challenge.

The next data set has as its system mild asthmatics. The note with it: nebulized dry powder, 16 mild asthmatics, compared with placebo, cited from earlier work.
The mark [3] stands for this setting: 3, 10 and 30 mg/kg subcutaneously, 24 hours after OVA aerosol challenge.

Compound `NCc1ccc2c(c1)C1(CCN(C(=O)c3ccc(C#Cc4ccccc4)o3)CC1)CO2` (as salt: salt) [Cpd 3, 1-(5-phenylethynyl-furan-2-yl)carbonyl-5′-aminomethyl-spiro[piperidine-4,3′-(2H)-benzo[b]furan]] returned a melting point of 179 to 181 °C. In the case of `NCc1ccc2c(c1)C1(CCN(C(=O)c3ccc(C#Cc4ccccc4)o3)CC1)CO2` [Cpd 3, 1-(5-phenylethynyl-furan-2-yl)carbonyl-5′-aminomethyl-spiro[piperidine-4,3′-(2H)-benzo[b]furan]], the pIC50 on human lung tryptase is 8.46. Besides, the “acute early phase response (EP; 0-4 h) post antigen, specific airway resistance (SRL)” value in data set [1] is “did not effect a change”. The “increase in airway hyper-reactivity to carbachol (PC400) at 24 h” value in data set [1] (24 h post antigen challenge) is recorded as “completely blocked”. Besides, the “late response (LP; 4-8 h post antigen), specific airway resistance (SRL)” value in data set [1] (inhaled Ascaris suum antigen challenge) is reported as “completely blocked”. In addition, the “reduction in BAL eosinophils” value in data set [2] (30 mg/kg subcutaneously, 24 hours after OVA aerosol challenge) is given as 66%. In addition, the “reduction in EAR as measured with whole body plethysmography (in PenH)” value in data set [2] (30 mg/kg subcutaneously, relative to sensitized and challenged guinea pigs treated with vehicle) is on record as “greater than 93%”. In data set [2] (setting [3]), the “eosinophilic BAL cell counts” value was “dose-dependent reduction” and the “total BAL cell counts” value is recorded as “dose-dependent reduction”. For `NC(=O)[C@@H]1CCCN1C(=O)[C@H](CCCN=C(N)N)NC(=O)c1ccc2ccccc2c1O` [APC-366], the “mean maximum decrease of forced expiratory volume in one second for late airway hyperresponsiveness” value in the data set with mild asthmatics (ρ=0.007) was 21%. Also, the “improvement for the late airway response” value in the data set on mild asthmatics (ρ=0.012) is 33%. `NCc1ccc2c(c1)C1(CCN(C(=O)c3ccc(C#Cc4ccccc4)o3)CC1)CN2S(=O)(=O)c1ccsc1` [Cpd 359, 1-(5-phenylethynyl-furan-2-yl)carbonyl-1′-thien-3-ylsulfonyl-5′-aminomethyl-spiro[piperidine-4,3′-(2H)-indole]] had a pIC50 against human lung tryptase of 7.82. The same measure, in the same setting: under `CC1=C(C(=O)N2CCC3(CC2)COc2ccc(CN)cc23)Cc2ccccc21` [Cpd 192, 1-(1-methyl-3H-inden-2-yl)carbonyl-5′-aminomethyl-spiro[piperidine-4,3′-(2H)-benzo[b]furan]] stands 6.82; under `NCc1ccc2c(c1)C1(CCN(C(=O)c3cc4ccccc4o3)CC1)CO2` [Cpd 160, 1-benzo[b]furan-2-ylcarbonyl-5′-aminomethyl-spiro[piperidine-4,3′-(2H)-benzo[b]furan]], 6.68; under `NCc1ccc2c(c1)C1(CCN(C(=O)c3sc(SCc4ccccc4)c4ccccc34)CC1)CO2` [Cpd 240, 1-(3-benzylthio-benzo[c]thien-1-yl)carbonyl-5′-aminomethyl-spiro[piperidine-4,3′-(2H)-benzo[b]furan]], 8.74. `COc1ccccc1C#Cc1ccc(C(=O)N2CCC3(CC2)COc2ccc(CN)cc23)o1` [Cpd 173, 1-[5-(2-methoxy-phenylethynyl)-furan-2-yl]carbonyl-5′-aminomethyl-spiro[piperidine-4,3′-(2H)-benzo[b]furan]]: the pIC50 at human lung tryptase was 7.89. `COc1ccc2c(Cl)c(C(=O)N3CCC4(CC3)COc3ccc(CN)cc34)sc2c1` [Cpd 209, 1-(3-chloro-6-methoxy-benzo[b]thien-2-yl)carbonyl-5′-aminomethyl-spiro[piperidine-4,3′-(2H)-benzo[b]furan]]: the pIC50 against human lung tryptase was 6.48.

`Cc1ccc(C)c(OCc2ccc(C(=O)N3CCC4(CC3)COc3ccc(CN)cc34)o2)c1` [Cpd 174, 1-[5-(2,5-dimethyl-phenoxymethyl)-furan-2-yl]carbonyl-5′-aminomethyl-spiro[piperidine-4,3′-(2H)-benzo[b]furan]] had a pIC50 at human lung tryptase of 7.77. This pIC50 is 1.29 log units higher than that of the compound before. Same read-out and setting: under `COc1ccc(CC(=O)N2CCC3(CC2)COc2ccc(CN)cc23)cc1OC` [Cpd 105, 1-(3,4-dimethoxy-benzyl)carbonyl-5′-aminomethyl-spiro[piperidine-4,3′-(2H)-benzo[b]furan]] stands 6.11; under `NCc1ccc2c(c1)C1(CCN(C(=O)c3ccc4ccccc4c3)CC1)CO2` [Cpd 70, 1-naphthalen-2-ylcarbonyl-5′-aminomethyl-spiro[piperidine-4,3′-(2H)-benzo[b]furan]], 6.82; under `COCCCOc1cccc(/C=C/C(=O)N2CCC3(CC2)COc2ccc(CN)cc23)c1` [Cpd 301, (E)-1-[3-(3-methoxy-propoxy)-phenylethenyl]carbonyl-5′-aminomethyl-spiro[piperidine-4,3′-(2H)-benzo[b]furan]], 5.82.

Consider `COC(=O)c1ccc(C(=O)N2CCC3(CC2)COc2ccc(CN)cc23)s1` [Cpd 267, 1-(5-methoxycarbonyl-thien-2-yl)carbonyl-5′-aminomethyl-spiro[piperidine-4,3′-(2H)-benzo[b]furan]], for which, on human lung tryptase, the pIC50 is 6.47.

`NCc1ccc2c(c1)C1(CCN(C(=O)c3ccc(C#Cc4ccccc4)o3)CC1)CN2S(N)(=O)=O` [Cpd 342, 1-(5-phenylethynyl-furan-2-yl)carbonyl-1′-aminosulfonyl-5′-aminomethyl-spiro[piperidine-4,3′-(2H)-indole]]: at human lung tryptase, the pIC50 is 8.28. The same measure, in the same setting: under `NCc1ccc2c(c1)C1(CCN(C(=O)c3nc(-c4cccs4)no3)CC1)CO2` [Cpd 277, 1-(3-thien-2-yl-[1,2,4]oxadiazol-5-yl)carbonyl-5′-aminomethyl-spiro[piperidine-4,3′-(2H)-benzo[b]furan]] stands 8.22; under `NCc1cc2c(cc1F)OCC21CCN(C(=O)c2ccc(Cl)c(Cl)c2)CC1` [Cpd 308, 1-(3,4-dichlorophenyl)carbonyl-5′-aminomethyl-6′-fluoro-spiro[piperidine-4,3′-(2H)-benzo[b]furan]], 5.14.
